# Data: publication PMC8557866, “Novel Small Molecule Growth Inhibitor Affecting Bacterial Outer Membrane Reduces Extraintestinal Pathogenic Escherichia coli (ExPEC) Infection in Avian Model” (Microbiology Spectrum, 2021)
# Read-outs that look alike come from different tables or passages of the source.
# Assays:
# [1] = system: APEC O78; conditions: for Mortality reduction compared to PC group: 7 days, PC mortality 60%; for Cumulative lesion score: PC 8.8; for Survival of chickens: P < 0.05, log-rank test
# Procedure: Prior to selection of these doses, we conducted a preliminary study using 20-mg/liter, 200-mg/liter, and 500-mg/liter doses (doses similar to those of antibiotics currently used in the poultry industry). […] The experiment was conducted using commercial broiler chickens (n = 11/group) as described above following procedures described in Fig. S1A. […] The amount of drinking water was adjusted daily based on the age and requirement of chickens (https://www.thepoultrysite.com/articles/broiler-water-consumption). The clinical signs and mortality, lesion scores, and APEC loads were determined as described above.
# [2] = system: APEC O78; test: Comparative efficacy of GI-7 and sulfadimethoxine, floor trial; format: in vivo, commercial broiler chickens; set-up: Cumulative lesion score / Mean lesion score in Liver / Mean lesion score in Heart / Mean lesion score in Lung / Mean lesion score in Air sacs: scale not given here
# Procedure: At day 13 (7 dpi), half of the chickens from each group, and at day 42 (slaughter age), 10 chickens from each group were necropsied and lesions and APEC loads were assessed as described above.
# [3] = Pharmacokinetic study in plasma of chickens (LC-MS); format: in vivo
# Procedure: Details of the methods are included in the supplemental material. page 3: previously(3). […] The mixtures were then incubated at […] for 30 min and proteins were removed by ultracentrifugation at 13,000xg for 25 min at 2 °C.
# [4] = system: LptE; test: Membrane protein SDS-PAGE and LC-MS/MS (emPAI of LptE); format: cell-based, Escherichia coli; conditions: GI-7-treated APEC; untreated APEC 13.84
# Procedure: A GI-7-treated culture of APEC O78 was prepared as described above, and the fractions of cytoplasmic and total membrane proteins were prepared using ultracentrifugation as described previously ([80]). […] The gel was stained with Coomassie blue R-250, the bands of ∼21.4 kDa (expected size of LptE) were excised from both untreated and GI-7-treated lanes of the gel, and in-gel digestion was performed as previously described ([81]). LC-MS/MS of the digested samples was performed on the Thermo Scientific Orbitrap Fusion MS instrument equipped with an EASY-Spray source operated in positive ion mode (CCIC, MS&P Facility, OSU). The Thermo Scientific UltiMate 3000 RSLCnano system containing an Acclaim PepMap 100 (75 μm by 2 cm) trap column and Easy-Spray nano separation column (PepMap RSLC C18, […], 100 Å, 75 μm by 150 mm; Thermo Scientific) was used for injection and elution of samples. For the proteomics database search, the E. coli Uniprot protein database with trypsin/P (selected as the enzyme) was used with the fragment mass tolerance set to 0.5 Da. Mascot Daemon (Matrix Science version 2.6.0) and Scaffold Proteome software were used for the MS/MS data analysis. […] The exponentially modified protein abundance index (emPAI) ([82]) was also calculated to compare the LptE levels between untreated and GI-7-treated gel fragments.
# [5] = 20 mg/L in drinking water, vs PC
# [6] = 20 mg/liter in drinking water, vs PC
# [7] = 40 mg/L in drinking water, vs PC
# [8] = 40 mg/liter in drinking water, vs PC
# [9] = 60 mg/L in drinking water, vs PC
# [10] = 60 mg/liter in drinking water, vs PC
# [11] = comparative efficacy trial, vs PC
# [12] = comparative efficacy, GI-7 60 mg/liter, SDM 495.3 mg/liter, 7 dpi
smiles,measurement,setting,value
COc1ccc(CNCc2cccc(C(F)(F)F)c2)cc1OCC(O)CN1CCCC1 (centres unmarked) [GI-7],"Mean APEC load, Heart",[1]; 20 mg/L in drinking water,6.7 Log CFU/g tissues
same,"Mean APEC load, Kidney",[1]; 20 mg/L in drinking water,5.9 Log CFU/g tissues
same,"Mean APEC load, Liver",[1]; 20 mg/L in drinking water,6.0 Log CFU/g tissues
same,"Mean APEC load, Lung",[1]; 20 mg/L in drinking water,6.3 Log CFU/g tissues
same,"log reduction in APEC load, Heart",[1]; [5],-0.2 Log CFU/g tissues
same,"log reduction in APEC load, Kidney",[1]; [5],0.2 Log CFU/g tissues
same,"log reduction in APEC load, Liver",[1]; [5],-0.1 Log CFU/g tissues
same,"log reduction in APEC load, Lung",[1]; [5],-0.4 Log CFU/g tissues
same,Mean lesion score in Air sacs,[1]; 20 mg/liter in drinking water,2.3
same,Mean lesion score in Heart,[1]; 20 mg/liter in drinking water,2.7
same,Mean lesion score in Liver,[1]; 20 mg/liter in drinking water,2
same,Mean lesion score in Lung,[1]; 20 mg/liter in drinking water,1.8
same,Mortality reduction compared to PC group,[1]; 20 mg/liter in drinking water,10%
same,Cumulative lesion score,[1]; 20 mg/liter in drinking water,8.8
same,"% reduction in severity, Air sacs lesions",[1]; [6],1.4%
same,"% reduction in severity, Heart lesions",[1]; [6],−9.5%
same,"% reduction in severity, Liver lesions",[1]; [6],0%
same,"% reduction in severity, Lung lesions",[1]; [6],10%
same,"Mean APEC load, Heart",[1]; 40 mg/L in drinking water,4.4 Log CFU/g tissues
same,"Mean APEC load, Kidney",[1]; 40 mg/L in drinking water,4.2 Log CFU/g tissues
same,"Mean APEC load, Liver",[1]; 40 mg/L in drinking water,3.9 Log CFU/g tissues
same,"Mean APEC load, Lung",[1]; 40 mg/L in drinking water,4.0 Log CFU/g tissues
same,"log reduction in APEC load, Heart",[1]; [7],2.0 Log CFU/g tissues
same,"log reduction in APEC load, Kidney",[1]; [7],1.9 Log CFU/g tissues
same,"log reduction in APEC load, Liver",[1]; [7],2.0 Log CFU/g tissues
same,"log reduction in APEC load, Lung",[1]; [7],2.0 Log CFU/g tissues
same,Reduction of severity of APEC lesions in internal organs,"[1]; 40 mg/liter and 60 mg/liter in drinking water, vs PC",up to 36.3%
same,Mean lesion score in Heart,[1]; 40 mg/liter in drinking water,2.6
same,Mean lesion score in Liver,[1]; 40 mg/liter in drinking water,2
same,Mortality reduction compared to PC group,[1]; 40 mg/liter in drinking water,50%
same,Survival of chickens,[1]; 40 mg/liter in drinking water,prolonged the survival
same,Cumulative lesion score,[1]; 40 mg/liter in drinking water,7.7
same,"% reduction in severity, Heart lesions",[1]; [8],−5.4%
same,"% reduction in severity, Liver lesions",[1]; [8],0%
same,"% reduction in severity, Lung lesions",[1]; [8],30%
same,"Mean APEC load, Heart",[1]; 60 mg/L in drinking water,4.0 Log CFU/g tissues
same,"Mean APEC load, Kidney",[1]; 60 mg/L in drinking water,3.6 Log CFU/g tissues
same,"Mean APEC load, Liver",[1]; 60 mg/L in drinking water,3.5 Log CFU/g tissues
same,"Mean APEC load, Lung",[1]; 60 mg/L in drinking water,4.4 Log CFU/g tissues
same,"log reduction in APEC load, Heart",[1]; [9],2.4 Log CFU/g tissues
same,"log reduction in APEC load, Kidney",[1]; [9],2.5 Log CFU/g tissues
same,"log reduction in APEC load, Liver",[1]; [9],2.4 Log CFU/g tissues
same,"log reduction in APEC load, Lung",[1]; [9],1.6 Log CFU/g tissues
same,Mean lesion score in Heart,[1]; 60 mg/liter in drinking water,2.1
same,Mean lesion score in Lung,[1]; 60 mg/liter in drinking water,1.4
same,Mortality reduction compared to PC group,[1]; 60 mg/liter in drinking water,50.9%
same,Survival of chickens,[1]; 60 mg/liter in drinking water,prolonged the survival
same,Cumulative lesion score,[1]; 60 mg/liter in drinking water,6.6
same,"% reduction in severity, Air sacs lesions",[1]; [10],33.8%
same,"% reduction in severity, Heart lesions",[1]; [10],15.2%
same,"% reduction in severity, Liver lesions",[1]; [10],13.6%
same,"% reduction in severity, Lung lesions",[1]; [10],36.3%
same,Anti-APEC effect compared to treatment at 60 mg/liter,"[1]; 80 mg/liter, follow-up study, data not shown",did not result in a better anti-APEC effect
same,Reduction of severity of lesions,"[2]; 60 mg/liter in drinking water, as given in the abstract",29.5%
same,Mortality reduction compared to PC group,"[2]; GI-7 60 mg/liter, SDM 495.3 mg/liter in drinking water, PC mortality 41.2%",14.7%
same,"Mean APEC load, Heart",[2]; comparative efficacy trial,6.1 Log CFU/g tissues
same,"Mean APEC load, Kidney",[2]; comparative efficacy trial,6.1 Log CFU/g tissues
same,"Mean APEC load, Liver",[2]; comparative efficacy trial,5.7 Log CFU/g tissues
same,"Mean APEC load, Lung",[2]; comparative efficacy trial,6.1 Log CFU/g tissues
same,"log reduction in APEC load, Heart",[2]; [11],1.8 Log CFU/g tissues
same,"log reduction in APEC load, Kidney",[2]; [11],1.6 Log CFU/g tissues
same,"log reduction in APEC load, Liver",[2]; [11],1.8 Log CFU/g tissues
same,"log reduction in APEC load, Lung",[2]; [11],2.0 Log CFU/g tissues
same,Cumulative lesion score,"[2]; comparative efficacy, 7 dpi",9.8
same,Mean lesion score in Air sacs,[2]; [12],3.0
same,Mean lesion score in Heart,[2]; [12],3.2
same,Mean lesion score in Liver,[2]; [12],2.3
same,Mean lesion score in Lung,[2]; [12],1.3
same,"% reduction in severity, Air sacs lesions","[2]; comparative efficacy, vs PC",9.9%
same,"% reduction in severity, Heart lesions","[2]; comparative efficacy, vs PC",10.2%
same,"% reduction in severity, Liver lesions","[2]; comparative efficacy, vs PC",7.2%
same,"% reduction in severity, Lung lesions","[2]; comparative efficacy, vs PC",29.5%
same,Effect on body weight gain (BWG) and feed conversion ratio (FCR),[2]; floor trial,No significant effect
same,Overall BWG,"[2]; floor trial, day 42 minus day 1, NC 2,501.2","2,432.4 g"
same,Overall FCR,"[2]; floor trial, NC 1.45",1.45
same,Survival of chickens,"[2]; floor trial, P < 0.1",increased the survival
same,Cmax,"[3]; commercial broiler, plasma, po, mean ± standard deviation, read-out: Peak plasma concentration (Cmax)",434 ± 388 ng/mL
same,Tmax,"[3]; commercial broiler, plasma, po, postadministration, read-out: Time to maximum concentration (Tmax)",8 h
same,Half-life,[3]; comparison in words,shorter half-life than SDM
same,Cumulative accumulation in plasma after repeated administration,[3]; data not shown,no cumulative accumulation
same,Excretion,[3]; plasma,≤ 24 h
same,Absorption (time at which absorbed),"[3]; plasma, drinking water delivery",0.5 h
same,emPAI of LptE,[4],8.46
